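Grown in 96-well plates, cells were treated for 48 hours with each compound at five concentrations. Insufficient inhibition: endpoint recorded as highest concentration tested. GI50 marks 50% less growth. Definition used: TGI = concentration required for complete inhibition of growth.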
How the values were obtained:
Assay in all cases: NCI-60 cell line screen, 48 h
[1] = tested on: 786-0 renal
[2] = tested on: MALME-3M melanoma
[3] = tested on: OVCAR-4 ovarian
[4] = tested on: OVCAR-5 ovarian
[5] = tested on: OVCAR-8 ovarian
[6] = tested on: SK-MEL-28 melanoma
[7] = tested on: SK-MEL-5 melanoma
[8] = tested on: SK-OV-3 ovarian
[9] = tested on: SNB-19 CNS
[10] = tested on: UO-31 renal

SMILES: COc1ccc2nc(N/N=C(\C)c3ccccn3)cc(C)c2c1
- GI50 [1]: 0.284 µM
- TGI [1]: 1.21 µM
- GI50 [2]: 0.23 µM
- TGI [2]: 0.697 µM
- GI50 [3]: 0.156 µM
- TGI [3]: 2.57 µM
- GI50 [4]: 0.571 µM
- TGI [4]: 3.68 µM
- GI50 [5]: 0.286 µM
- TGI [5]: 2.53 µM
- GI50 [6]: 0.445 µM
- TGI [6]: 1.68 µM
- GI50 [7]: 0.244 µM
- TGI [7]: 1.12 µM
- GI50 [8]: 0.269 µM
- TGI [8]: 2.08 µM
- GI50 [9]: 0.382 µM
- TGI [9]: 2.12 µM
- GI50 [10]: 0.161 µM
- TGI [10]: 1.08 µM

SMILES: O=C1NCc2ccc3c(-c4cccc(Cl)c4)c[nH]c3c21
- GI50 [1]: 0.276 µM
- TGI [1]: > 50 µM
- GI50 [2]: 0.191 µM
- TGI [2]: > 50 µM
- GI50 [3]: 1.95 µM
- TGI [3]: > 50 µM
- GI50 [4]: 1.62 µM
- TGI [4]: > 50 µM
- GI50 [5]: 0.503 µM
- TGI [5]: > 50 µM
- GI50 [6]: 2.21 µM
- TGI [6]: > 50 µM
- GI50 [7]: 0.269 µM
- TGI [7]: > 20.4 µM
- GI50 [8]: 0.339 µM
- TGI [8]: > 50 µM
- GI50 [9]: 0.29 µM
- TGI [9]: > 50 µM
- GI50 [10]: 0.465 µM
- TGI [10]: > 23.5 µM

SMILES: COc1ccc(-c2nn3ncccc3c2-c2ccnc(Nc3ccc(Cl)c(C(F)(F)F)c3)n2)cc1
- GI50 [1]: 11 µM
- TGI [1]: > 25 µM
- GI50 [2]: 10.8 µM
- TGI [2]: > 25 µM
- GI50 [3]: 8.66 µM
- TGI [3]: > 25 µM
- GI50 [4]: 9.39 µM
- TGI [4]: > 25 µM
- GI50 [5]: 8.58 µM
- TGI [5]: > 25 µM
- GI50 [6]: 16.9 µM
- TGI [6]: > 25 µM
- GI50 [7]: 7.16 µM
- TGI [7]: > 22 µM
- GI50 [8]: 13.1 µM
- TGI [8]: > 25 µM
- GI50 [9]: 16 µM
- TGI [9]: > 25 µM
- GI50 [10]: 6.32 µM
- TGI [10]: > 25 µM

SMILES: CNC(=O)c1cc(OC2CCC(NC(=O)Nc3ccc(Cl)c(C(F)(F)F)c3)CC2)ccn1 (stereo not given)
- GI50 [1]: 8.34 µM
- TGI [1]: 25 µM
- GI50 [2]: 9.64 µM
- TGI [2]: 34.3 µM
- GI50 [3]: 4.53 µM
- TGI [3]: 49.6 µM
- GI50 [4]: 12.5 µM
- TGI [4]: 31.1 µM
- GI50 [5]: 7.89 µM
- TGI [5]: 39.6 µM
- GI50 [6]: 11.4 µM
- TGI [6]: 24.6 µM
- GI50 [7]: 3.07 µM
- TGI [7]: 10.9 µM
- GI50 [8]: 18.8 µM
- TGI [8]: 40.1 µM
- GI50 [9]: 7.91 µM
- TGI [9]: 32.2 µM
- GI50 [10]: 7.09 µM
- TGI [10]: 21.7 µM

SMILES: CCN(CC)CCOc1nc2ccc(OC)cc2c2c1-c1ccc(OC)cc1C2=O
- GI50 [1]: 1.39 µM
- TGI [1]: 3.11 µM
- GI50 [2]: 1.68 µM
- TGI [2]: 3.22 µM
- GI50 [3]: 1.02 µM
- TGI [3]: 3.17 µM
- GI50 [4]: 1.87 µM
- TGI [4]: 7.2 µM
- GI50 [5]: 0.526 µM
- TGI [5]: 2.26 µM
- GI50 [6]: 1.81 µM
- TGI [6]: 3.24 µM
- GI50 [7]: 1.57 µM
- TGI [7]: 2.94 µM
- GI50 [8]: 2.88 µM
- TGI [8]: 14.8 µM
- GI50 [9]: 0.922 µM
- TGI [9]: 3.19 µM
- GI50 [10]: 0.361 µM
- TGI [10]: 1.85 µM

SMILES: COc1cccc(C2CC(C)(N3CCCC3)Oc3cc4c(cc32)OCO4)c1O (stereo not given)
- TGI [1]: > 100 µM
- TGI [2]: > 100 µM
- TGI [3]: > 100 µM
- TGI [4]: > 100 µM
- TGI [5]: > 73.2 µM
- TGI [6]: > 51.5 µM
- TGI [7]: > 62.4 µM
- TGI [8]: > 100 µM
- TGI [9]: > 100 µM
- TGI [10]: > 96.3 µM

SMILES: CS(=O)(=O)CCNCc1nc(-c2ccc3ncnc(Nc4ccc(F)c(Cl)c4)c3c2)cs1
- GI50 [1]: 22.9 µM
- TGI [1]: > 25 µM
- GI50 [2]: > 23.6 µM
- TGI [2]: > 25 µM
- GI50 [3]: 14.7 µM
- TGI [3]: > 25 µM
- GI50 [4]: > 25 µM
- TGI [4]: > 25 µM
- GI50 [5]: 14.4 µM
- TGI [5]: > 25 µM
- GI50 [6]: > 20.2 µM
- TGI [6]: > 25 µM
- GI50 [7]: 11.5 µM
- TGI [7]: > 25 µM
- GI50 [8]: 1.96 µM
- TGI [8]: 11 µM
- GI50 [9]: > 25 µM
- TGI [9]: > 25 µM
- GI50 [10]: 6.81 µM
- TGI [10]: > 25 µM

SMILES: C=C1C(=O)O[C@H]2[C@H]1CC/C(COC(=O)c1cc3cc(F)ccc3[nH]1)=C\CC[C@@]1(C)O[C@@H]21
- GI50 [1]: 1.78 µM
- TGI [1]: 3.75 µM
- GI50 [2]: 1.67 µM
- TGI [2]: 3.53 µM
- GI50 [3]: 1.67 µM
- TGI [3]: 3.92 µM
- GI50 [4]: 1.77 µM
- TGI [4]: 4.09 µM
- GI50 [5]: 2.17 µM
- TGI [5]: 6.67 µM
- GI50 [6]: 1.79 µM
- TGI [6]: 3.69 µM
- GI50 [7]: 1.85 µM
- TGI [7]: 3.84 µM
- GI50 [8]: 11.6 µM
- TGI [8]: 24.1 µM
- GI50 [9]: 5.04 µM
- TGI [9]: 21 µM
- GI50 [10]: 1.2 µM
- TGI [10]: 2.54 µM

SMILES: CC1=C(C(=O)Nc2ccccc2C)C(c2ccccc2)C(C(=O)Nc2ccccc2C)=C(C)N1
- TGI [1]: > 100 µM
- TGI [2]: > 100 µM
- TGI [3]: > 100 µM
- TGI [4]: > 100 µM
- TGI [5]: > 100 µM
- TGI [6]: > 100 µM
- TGI [7]: 90 µM
- TGI [8]: > 100 µM
- TGI [9]: > 100 µM
- TGI [10]: > 100 µM

SMILES: COc1ccc2c(c1)[nH]c(=O)c1c3cc(C)c(C)cc3cn21
- GI50 [1]: < 0.0233 µM
- TGI [1]: 1.6 µM
- GI50 [2]: 0.161 µM
- TGI [2]: 2.76 µM
- GI50 [3]: 0.032 µM
- TGI [3]: 3.95 µM
- GI50 [4]: 0.0561 µM
- TGI [4]: 2.92 µM
- GI50 [5]: < 0.0179 µM
- TGI [5]: 1.48 µM
- GI50 [6]: < 0.01 µM
- TGI [6]: 1.91 µM
- GI50 [7]: < 0.0158 µM
- TGI [7]: 0.0763 µM
- GI50 [8]: < 0.0194 µM
- TGI [8]: 4.59 µM
- GI50 [9]: < 0.0226 µM
- TGI [9]: 4.66 µM
- GI50 [10]: < 0.0119 µM
- TGI [10]: 1.72 µM

SMILES: COc1ccc2c(c1)/C(=C\c1c(C)nc3sc(C)cn13)C(=O)N2C
- GI50 [1]: 8.92 µM
- TGI [1]: > 100 µM
- GI50 [2]: 7.09 µM
- TGI [2]: 73.3 µM
- GI50 [3]: 26.4 µM
- TGI [3]: > 100 µM
- GI50 [4]: 19.9 µM
- TGI [4]: > 100 µM
- GI50 [5]: 6.14 µM
- TGI [5]: > 100 µM
- GI50 [6]: 7.26 µM
- TGI [6]: 35.5 µM
- GI50 [7]: 2.15 µM
- TGI [7]: 5.49 µM
- GI50 [8]: 2.35 µM
- TGI [8]: 7.18 µM
- GI50 [9]: 4.08 µM
- TGI [9]: > 100 µM
- GI50 [10]: 10 µM
- TGI [10]: > 100 µM

SMILES: C=C1C(=O)O[C@H]2[C@H]1CC/C(Cn1cc(CNC(=O)Cc3cn(C(=O)c4ccc(Cl)cc4)c4ccc(OC)cc34)nn1)=C\CC[C@@]1(C)O[C@@H]21
- GI50 [1]: 1.59 µM
- TGI [1]: 3.02 µM
- GI50 [2]: 1.62 µM
- TGI [2]: 3.18 µM
- GI50 [3]: 1.44 µM
- TGI [3]: 3.02 µM
- GI50 [4]: 1.66 µM
- TGI [4]: 3.34 µM
- GI50 [5]: 2.62 µM
- TGI [5]: 8.3 µM
- GI50 [6]: 1.62 µM
- TGI [6]: 3.07 µM
- GI50 [7]: 1.77 µM
- TGI [7]: 3.28 µM
- GI50 [8]: 16.1 µM
- TGI [8]: 32.9 µM
- GI50 [9]: 2.14 µM
- TGI [9]: 4.77 µM
- GI50 [10]: 1.53 µM
- TGI [10]: 3.05 µM

From PubChem BioAssay (NCI)
